In the supplement of paper PMC10307832:

Key:
Assay in all cases: relative viability (nuclei count vs DMSO), 5 days (fraction); higher = more cells survive
Trametinib + Pictilisib = compound: CC(=O)Nc1cccc(-n2c(=O)n(C3CC3)c(=O)c3c(Nc4ccc(I)cc4F)n(C)c(=O)c(C)c32)c1 [Trametinib] + CS(=O)(=O)N1CCN(Cc2cc3nc(-c4cccc5[nH]ncc45)nc(N4CCOCC4)c3s2)CC1 [Pictilisib] (partner 1 µM)
Method in brief: (§1)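 Five library-drug doses in √10 steps were combined with a fixed anchor-drug dose, or a single drug was given alone, by pin tool to lung cancer cell lines in 1536-well plates the day after seeding. Nuclei were stained and counted after 5 days. Relative viability is the nuclei count in treated wells over that in vehicle wells, taken as the median of duplicate plates.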

Trametinib + Dasatinib = compound: CC(=O)Nc1cccc(-n2c(=O)n(C3CC3)c(=O)c3c(Nc4ccc(I)cc4F)n(C)c(=O)c(C)c32)c1 [Trametinib] + Cc1nc(Nc2ncc(C(=O)Nc3c(C)cccc3Cl)s2)cc(N2CCN(CCO)CC2)n1 [Dasatinib] (partner 0.075 µM)
Method in brief: as §1

[1] = compound: CN1C=C(C2=CC=CC=C21)/C=C\3/C4=C(C=CC=N4)NC3=O + COc1cccc2cc(-c3nc([C@H]4CC[C@H](C(=O)O)CC4)n4ncnc(N)c34)[nH]c12 [OSI-027] (partner 0.5 µM)
Method in brief: as §1

[2] = compound: CN1C=C(C2=CC=CC=C21)/C=C\3/C4=C(C=CC=N4)NC3=O + N=C(N)NC(=N)NCCc1ccccc1 [Phenformin] (partner 250 µM)
Method in brief: as §1

Row | Cell Line | relative viability (Trametinib + Pictilisib; first compound 0.0025 µM) | relative viability (Trametinib + Pictilisib; first compound 0.007906 µM) | relative viability (Trametinib + Pictilisib; first compound 0.025 µM) | relative viability (Trametinib + Pictilisib; first compound 0.07906 µM) | relative viability (Trametinib + Pictilisib; first compound 0.25 µM) | relative viability (Trametinib + Dasatinib; first compound 0.0025 µM) | relative viability (Trametinib + Dasatinib; first compound 0.007906 µM) | relative viability (Trametinib + Dasatinib; first compound 0.025 µM) | relative viability (Trametinib + Dasatinib; first compound 0.07906 µM) | relative viability (Trametinib + Dasatinib; first compound 0.25 µM) | relative viability ([1]; first compound 0.02 µM) | relative viability ([1]; first compound 0.06325 µM) | relative viability ([1]; first compound 0.2 µM) | relative viability ([1]; first compound 0.6325 µM) | relative viability ([1]; first compound 2 µM) | relative viability ([2]; first compound 0.02 µM) | relative viability ([2]; first compound 0.06325 µM) | relative viability ([2]; first compound 0.2 µM) | relative viability ([2]; first compound 0.6325 µM) | relative viability ([2]; first compound 2 µM)
1 | NCI-H2085 | 0.412 | 0.353 | 0.418 | 0.327 | 0.32 | 0.215 | 0.185 | 0.233 | 0.213 | 0.222 | 0.897 | 0.717 | 0.597 | 0.716 | 0.67 | 0.74 | 0.656 | 0.647 | 0.778 | 0.72
2 | NCI-H2087 | 0.846 | 0.344 | 0.26 | 0.237 | 0.382 | 0.366 | 0.236 | 0.117 | 0.127 | 0.156 | 0.75 | 0.403 | 0.47 | 0.642 | 0.587 | 0.488 | 0.431 | 0.387 | 0.453 | 0.369
3 | NCI-H2126 | 0.456 | 0.413 | 0.362 | 0.372 | 0.383 | 0.452 | 0.44 | 0.395 | 0.412 | 0.445 | 0.605 | 0.657 | 0.6 | 0.697 | 0.612 | 0.506 | 0.508 | 0.507 | 0.519 | 0.505
4 | NCI-H2170 | 0.281 | 0.276 | – | 0.238 | 0.249 | 0.56 | 0.476 | 0.37 | 0.347 | 0.416 | 0.718 | 0.69 | 0.55 | 0.764 | 0.668 | 0.354 | 0.366 | 0.327 | 0.405 | 0.4
5 | NCI-H2228 | 0.281 | 0.232 | 0.184 | 0.171 | 0.199 | 0.44 | 0.36 | 0.348 | 0.237 | 0.143 | 0.576 | 0.452 | – | – | 0.462 | 0.213 | 0.273 | – | – | 0.304
6 | NCI-H2347 | 0.452 | 0.301 | 0.221 | 0.229 | 0.272 | 0.234 | 0.16 | 0.162 | 0.172 | 0.149 | – | 0.347 | 0.483 | 0.552 | 0.378 | – | 0.374 | 0.297 | 0.318 | 0.46
7 | NCI-H2405 | 0.298 | 0.251 | 0.257 | 0.204 | 0.236 | 0.209 | 0.187 | 0.19 | 0.173 | 0.183 | 0.703 | 0.611 | 0.62 | 0.657 | 0.711 | 0.416 | 0.381 | 0.366 | 0.328 | 0.4
8 | NCI-H3122 | 0.287 | 0.24 | 0.197 | 0.189 | 0.175 | 0.767 | 0.512 | 0.13 | 0.144 | 0.146 | 0.879 | 0.9 | – | 1.18 | 1.4 | 0.347 | 0.333 | – | 0.375 | 0.355
9 | PC-3 [JPC-3] | 0.765 | 0.474 | 0.484 | 0.438 | 0.44 | 1.06 | 0.927 | 0.848 | 0.823 | 0.743 | 0.698 | 0.487 | 0.747 | 0.703 | 0.694 | 0.472 | 0.44 | 0.434 | 0.425 | 0.497
10 | PC-14 | 0.667 | 0.546 | 0.24 | 0.141 | 0.107 | 0.265 | 0.234 | 0.266 | 0.13 | 0.0632 | 0.95 | 0.819 | 0.751 | 0.84 | 0.785 | 0.54 | 0.482 | – | 0.575 | 0.447
11 | RERF-LC-KJ | 0.417 | 0.449 | 0.503 | 0.494 | 0.458 | 0.7 | 0.741 | 0.794 | 0.731 | 0.554 | 0.551 | 0.574 | 0.493 | 0.554 | 0.545 | 0.434 | 0.415 | 0.444 | 0.474 | 0.482
12 | SK-LU-1 | 0.535 | 0.399 | 0.251 | 0.278 | 0.256 | 0.192 | 0.183 | 0.148 | 0.15 | 0.159 | 0.273 | 0.284 | 0.333 | 0.354 | 0.382 | 0.409 | 0.41 | 0.444 | 0.524 | 0.646
13 | SK-MES-1 | 0.282 | 0.223 | 0.214 | 0.171 | 0.187 | 0.324 | 0.313 | 0.208 | 0.171 | 0.156 | 0.58 | 0.628 | 0.582 | 0.608 | 0.446 | 0.653 | 0.634 | 0.715 | 0.672 | 0.624
14 | SW 1573 | 0.357 | 0.34 | 0.339 | 0.308 | 0.214 | 0.513 | 0.389 | 0.371 | 0.323 | 0.266 | 0.737 | 0.557 | 0.559 | 0.54 | 0.551 | 0.394 | 0.344 | 0.436 | 0.352 | 0.441
